Entries after “also recorded” stand apart in the source; their conditions may differ.
Assays:
[1] = tested on: LU1205 human melanoma cells; test: Growth of LU1205 human melanoma tumors expressing ATF2 peptide in nude mice; assay type: in vivo, mouse
From the text: LU1205 or FEMX human melanoma tumor-derived cell lines that constitutively express ATF2^51-100 peptide or that contain control vector were each injected subcutaneously into a group of 6 nude mice (10^6 cells per injection) per cell line per experiment. […] The data shown represent three experiments. Bars represent standard deviation, P<0.0015. […] The data shown represent three experiments. Bars represent standard deviation, P<0.0021.
The ability of expressed ATF2^51-100 peptide to affect the tumorigenicity of human melanoma cells in vivo was examined. To this end, growth of LU1205 and FEMX human melanoma cells were monitored in nude mice in the presence or absence of treatment that induced apoptosis in vitro. LU1205, FEMX and SW-1 cells that express control or ATF2^51-100 peptide were trypsinized, resuspended in PBS and injected SC (1×10^6) into 6-7 week old mice in the lower flank. When the tumor reached the size of about 50 mm^3, 10 μM of SB203580 was injected into 4 areas of the LU1205 tumors every 4 days during a 2 week period. For FEMX tumors, UCN-01 (5 mg/Kg) was fed by gavage, three times per week for a total of 2 weeks. Tumor growth was monitored every two days. Tissue samples were fixed in formalin and embedded in paraffin. Hematoxylin and eosin (H&E), TUNEL staining was performed as previously described (Bhoumik et al., Clin. Cancer Res., 2001; 2:331-342).

[2] = tested on: early-stage melanoma, melanocytes, in vitro transformed 293T cells; settings: cited from earlier work

Question: Which results are given for “ATF2^51-100: amino-terminal peptide of ATF2, amino acid residue 51 to 100 (about a 50 amino acid peptide), expressed in tumor cells (MTLKFGPARNDSVIVADQTPTPTRFLKNCEEVGLFNELASPFENEFKKAS; UniProt P15336 51-100, looked up, fragment)”?
Answer: tumor growth rate ([1]; LU1205 cells constitutively expressing peptide, SC in nude mice): reduced the growth rates; also recorded: inhibits growth; tumor growth with additional treatment ([1]; peptide-expressing LU1205 tumors plus p38 inhibitor SB203580 10 μM intratumoral): additional decrease in growth; sensitization by ATF2 peptide [2]: not in early-stage melanoma, or melanocytes, or in in vitro transformed 293T cells
